# Results from patent US20010041688A1, “Methods and compositions for the regulation of vasoconstriction” (priority 2000, published 2001).
# Tests used:
# [1] = system: basilar artery; set-up: species or system rat
# [2] = system: S1P-induced vasoconstriction of basilar artery; experiment: Modulation of S1P-induced vasoconstriction in isolated basilar artery; set-up: species or system rat
# [3] = system: cerebral blood flow; experiment: Relative cerebral blood flow by laser Doppler flowmetry in anesthetized rats; format: in vivo, rat; details: for Relative cerebral blood flow (rCBF) in cerebral cortex: 0.3 mg/kg infused into left internal carotid artery, anesthetized rats
# Description: Pentobarbital-anaesthetized mechanically-ventilated male rats (250-300 g, Charles River) were maintained at 37.0±0.5° C. A femoral vein and artery were cannulated to monitor mean arterial blood pressure, heart rate and arterial blood gases. The left common carotid artery was ligated. The animals were placed in a stereotaxic frame and relative cerebral blood flow (rCBF) was measured by a laser Doppler flow probe (Model PF2B, Perimed) affixed to the thinned skull above the vascular territory of the left middle cerebral artery (2 mm posterior to Bregma, 3 mm lateral to midline). Changes in rCBF were expressed as a percentage of baseline and recorded for 20 minutes beginning at the onset of drug or vehicle infusion. S1P, DHS1P or vehicle were infused (100 μl/2 minutes) into the left internal carotid artery. Some rats were pretreated with suramin via infusion (200 μl/2 min) into the left femoral vein.
# [4] = system: basilar artery; experiment: Contractile tension in isolated basilar artery (isometric myograph); details: isolated rat basilar artery; for Contractile response Emax: % of contraction evoked by 100 mM KCl; for EC50: read-out: Contractile response EC50
# Description: (§1) Preparations were equilibrated unstretched for 30 min.
# [5] = system: carotid artery; experiment: Contractile tension in isolated carotid artery (isometric myograph); details: isolated rat carotid artery; for Contractile response Emax: % of contraction evoked by 100 mM KCl
# Description: as §1
# [6] = system: coronary artery; experiment: Contractile tension in isolated coronary artery (isometric myograph); details: isolated rat coronary artery; for Contractile response Emax: % of contraction evoked by 100 mM KCl
# Description: as §1
# [7] = system: femoral artery; experiment: Contractile tension in isolated femoral artery (isometric myograph); details: isolated rat femoral artery; for Contractile response Emax: % of contraction evoked by 100 mM KCl
# Description: as §1
# [8] = system: middle cerebral artery; experiment: Contractile tension in isolated middle cerebral artery (isometric myograph); details: isolated rat middle cerebral artery; for Contractile response Emax: % of contraction evoked by 100 mM KCl; for EC50: read-out: Contractile response EC50
# Description: as §1
# [9] = system: rabbit basilar arteries; experiment: Constriction of rabbit basilar artery; details: data not shown
# [10] = system: mouse basilar arteries; experiment: Constriction of mouse basilar artery; details: data not shown
# [11] = read-out: Contractile response EC50
compound,measurement,setting,value
Cc1ccc(C(=O)Nc2ccc(S(=O)(=O)O)c3cc(S(=O)(=O)O)cc(S(=O)(=O)O)c23)cc1NC(=O)c1cccc(NC(=O)Nc2cccc(C(=O)Nc3cc(C(=O)Nc4ccc(S(=O)(=O)O)c5cc(S(=O)(=O)O)cc(S(=O)(=O)O)c45)ccc3C)c2)c1 [suramin],Contractile response to 5-HT after preincubation with suramin,[1]; data not shown,did not modify
same,Contractile response to S1P after preincubation with suramin,"[2]; 10 μM suramin, added 30 min prior to S1P",markedly depressed
same,S1P's effect on rCBF after suramin pretreatment,"[3]; suramin 16 mg/kg via femoral vein, S1P 0.3 mg/kg",abolished
Pertussis toxin,Response to 5-HT1 receptor agonist 5-carboxamidotryptamine after incubation with toxin,"[1]; without toxin 92±10, n=4, p<0.05",30±2 % of KCl-evoked contraction
same,Effect of toxin incubation on S1P-induced vasoconstriction (in words),[2]; basilar artery segments treated in vitro with toxin,did not modify
"[Cl-].[K+] [KCl, potassium chloride]",Contractile response to KCl,[4]; 100 mM KCl,1.70 mN/mm
same,Contractile response to KCl,[5]; 100 mM KCl,2.28 mN/mm
same,Contractile response to KCl,[6]; 100 mM KCl,1.87 mN/mm
same,Contractile response to KCl,[7]; 100 mM KCl,4.52 mN/mm
same,Contractile response to KCl,[8]; 100 mM KCl,1.05 mN/mm
"NCCc1c[nH]c2ccc(O)cc12 [5-HT, 5-hydroxytryptamine]",Contractile response Emax,[4],99.5 % KCl
same,EC50,[4],63 nM
same,Contractile response Emax,[5],101.1 % KCl
same,EC50,[5]; [11],3180 nM
same,Contractile response Emax,[6],119.3 % KCl
same,EC50,[6]; [11],242 nM
same,Contractile response Emax,[7],133.2 % KCl
same,EC50,[7]; [11],122 nM
same,Contractile response Emax,[8],73.2 % KCl
same,EC50,[8],44 nM
"CCCCCCCCCCCCC/C=C/[C@@H](O)[C@@H](N)COP(=O)(O)O [S1P, sphingosine-1-phosphate]",Constriction (in words),[9],able to constrict
same,Contraction (in words),[4],robust contraction
same,Contractile response Emax,[4],96.7 % KCl
same,EC50,[4],280 nM
same,Contraction (in words),[5],unresponsive
same,Contractile response Emax,[5],5.2 % KCl
same,Contraction (in words),[6],weakly constricted
same,Contractile response Emax,[6],16.9 % KCl
same,Relative cerebral blood flow (rCBF) in cerebral cortex,[3],decreased
same,Contraction (in words),[7],unresponsive
same,Contractile response Emax,[7],3.6 % KCl
same,Contraction (in words),[8],robust contraction
same,Contractile response Emax,[8],77.6 % KCl
same,EC50,[8],350 nM
same,Constriction (in words),[10],able to constrict
"CCCCCCCCCCCCCCC[C@@H](O)[C@@H](N)COP(=O)(O)O [DHS1P, dihydrosphingosine-1-phosphate]",Contraction (in words),[4],less effectively than S1P
same,Contractile response Emax,[4],58.8 % KCl
same,EC50,[4],240 nM
same,Contractile response Emax,[5],5.9 % KCl
same,Contractile response Emax,[6],15.9 % KCl
same,Relative cerebral blood flow (rCBF) in cerebral cortex,[3],"reduced rCBF, although less potently"
same,Contractile response Emax,[7],6.3 % KCl
CCCCCCCCCCCCC/C=C/[C@@H](O)[C@@H](N)CO [sphingosine],Contractile response to S1P after preincubation with sphingosine together with DMS,"[2]; sphingosine 10 μM plus DMS 20 μM, added 30 min prior to S1P",fully blocked
